According to patent publication US11918565B1, “Treatment of post-operative pain via sciatic nerve block with sustained-release liposomal anesthetic compositions” (Pacira Pharmaceuticals, Inc., priority 2022, dated 2024):
Counter-ions that a name gives are not always drawn.

Columns and labels:
[1] = tested on: sciatic nerve (motor block) in subjects undergoing bunionectomy; assay: Pharmacodynamics: onset and duration of motor block (foot movement), clinical trial #1 Part A; type: in vivo, human
Description: (§1) Clinical Study #1 was a Phase 3, multicenter, randomized, double-blind, active-controlled study in 180 subjects undergoing bunionectomy. Subjects received a sciatic (in the popliteal fossa) nerve block with a single dose of either EXPAREL 266 mg (EXP266), EXPAREL 133 mg (EXP133), or 0.25% bupivacaine HCl (50 mg; BUP50). The study was conducted in two parts (Part A and Part B). Part A was to be completed and analyzed before enrollment in Part B was initiated. Part A was a 3-arm cohort with 66 subjects undergoing bunionectomy to obtain information on pharmacokinetics (PK), pharmacodynamics (PD), efficacy, and safety. Subjects were randomized (1:1:1) to the EXP266, EXP133, and BUP50 treatment arms. Part B was a 2-arm cohort with 119 subjects undergoing bunionectomy to evaluate the efficacy and safety of EXPAREL compared with bupivacaine HCl. The dose of the EXPAREL arm in Part B was determined based on the interim analysis of the Part A cohort results.
(§2) On the day of surgery, subjects received an ultrasound-guided sciatic (in the popliteal fossa) nerve block with one of the following treatments: • EXP266 arm: subjects randomized to this treatment arm received 20 mL (266 mg) EXPAREL mixed with 10 mL saline (Part A only; per interim analysis was not selected for Part B) • EXP133 arm: subjects randomized to this treatment arm received 10 mL (133 mg) EXPAREL mixed with 20 mL saline (Part A and B) • BUP50 arm: subjects randomized to this treatment arm received 20 mL (50 mg) 0.25% bupivacaine HCl mixed with 10 mL saline (Part A and B)
(§3) Efficacy assessments included pain intensity scores focused on the operative foot using the Numeric Rating Scale (NRS), total postsurgical opioid consumption in OMED, time to first opioid consumption post-surgery, and percentage of opioid-free patients through 96 hours, and worst and average NRS pain intensity scores at 24 h, 48 h, 72 h, and 96 h from end of surgery. Additionally, blood samples for pharmacokinetic (PK) analysis (area under the curve [AUC], maximum plasma concentration [Cmax], time of maximum plasma concentration [Tmax], including early and late Cmax and Tmax (EXP133-ADMIX arm only), apparent terminal elimination half-life [t1/2el], apparent clearance [CL/F], and apparent volume of distribution [Vd/F]). Pharmacodynamic (PD) assessment data, including median time to onset of sensory block and motor block, and median duration of sensory and motor block were collected.
(§4) Pharmacodynamic endpoints included: onset of sensory block, offset of sensory block, duration of sensory block, onset of motor block, offset of motor block, and duration of motor block.

[2] = tested on: sciatic nerve (sensory block) in subjects undergoing bunionectomy; assay: Pharmacodynamics: onset and duration of sensory block, clinical trial #1 Part A; type: in vivo, human
Description: as §1, §2, §3, §4

CCCCN1CCCCC1C(=O)Nc1c(C)cccc1C (stereo not shown) [BUP50, bupivacaine HCl]
subjects without foot movement at the first time point with ≥50% ([1]; 1 h post-dose for EXP266, 2 h post-dose for EXP133 and BUP50): 54.5% | subjects who still did not have complete foot movement ([1]; 84 h post-dose): 18.2% | subjects with motor block onset observed ([1]; human, in vivo): 40.9% | first time point at which foot movement was not present in ≥50% of subjects ([1]; post-dose): 2 h | subjects without sensation at the first time point with ≥50% ([2]; 30 min post-dose for BUP50, 2 h for EXP266 and EXP133): 59.1% | subjects who still did not have complete sensation ([2]; 60 h post-dose): all BUP50 subjects had regained sensation | median duration of sensory block ([2]; human, in vivo): 29.10 h | median time to sensory block ([2]; human, in vivo): 0.46 h | subjects with sensory block onset observed ([2]; human, in vivo): 63.6% | first time point at which sensation was not present in ≥50% of subjects ([2]; post-dose): 30 min
